# Laboratory results published in article PMC4287998 (Phytochemistry letters, 2014).
# Tests used:
# [1] = tested on: HT-29 human colon cancer cell line; experiment: Cytotoxicity assay; format: cell-based; conditions: HT-29 cells, two days' incubation, SRB; ED50 > 20 µM considered inactive
# [2] = tested on: Leishmania mexicana promastigotes; experiment: Promastigote assay, live/dead parasites by flow cytometry; format: cell-based; conditions: 48 h, read-out: L. mexicana promastigotes IC50
# NF-κB (p65) = NF-κB (p65) (Homo sapiens, UniProt Q04206); experiment: Enzyme-based ELISA NF-κB; format: biochemical
# NF-κB (p65), sequence (Q04206 whole entry): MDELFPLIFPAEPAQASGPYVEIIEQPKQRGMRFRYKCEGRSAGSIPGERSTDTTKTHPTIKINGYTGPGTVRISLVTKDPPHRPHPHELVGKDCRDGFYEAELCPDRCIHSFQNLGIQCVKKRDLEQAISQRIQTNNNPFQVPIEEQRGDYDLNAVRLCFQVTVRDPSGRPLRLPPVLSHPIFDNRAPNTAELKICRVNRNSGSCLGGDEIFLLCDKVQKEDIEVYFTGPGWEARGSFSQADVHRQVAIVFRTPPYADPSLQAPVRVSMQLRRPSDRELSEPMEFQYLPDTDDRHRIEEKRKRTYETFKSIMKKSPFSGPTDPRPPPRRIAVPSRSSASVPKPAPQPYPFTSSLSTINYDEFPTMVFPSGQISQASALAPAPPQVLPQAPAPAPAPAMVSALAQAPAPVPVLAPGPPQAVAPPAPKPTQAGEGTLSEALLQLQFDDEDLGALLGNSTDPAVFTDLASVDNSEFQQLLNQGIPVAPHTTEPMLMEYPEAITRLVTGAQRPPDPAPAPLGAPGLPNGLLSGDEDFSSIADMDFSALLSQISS
# NF-κB (p65), sequence (P19838 1-433 partner limits assumed): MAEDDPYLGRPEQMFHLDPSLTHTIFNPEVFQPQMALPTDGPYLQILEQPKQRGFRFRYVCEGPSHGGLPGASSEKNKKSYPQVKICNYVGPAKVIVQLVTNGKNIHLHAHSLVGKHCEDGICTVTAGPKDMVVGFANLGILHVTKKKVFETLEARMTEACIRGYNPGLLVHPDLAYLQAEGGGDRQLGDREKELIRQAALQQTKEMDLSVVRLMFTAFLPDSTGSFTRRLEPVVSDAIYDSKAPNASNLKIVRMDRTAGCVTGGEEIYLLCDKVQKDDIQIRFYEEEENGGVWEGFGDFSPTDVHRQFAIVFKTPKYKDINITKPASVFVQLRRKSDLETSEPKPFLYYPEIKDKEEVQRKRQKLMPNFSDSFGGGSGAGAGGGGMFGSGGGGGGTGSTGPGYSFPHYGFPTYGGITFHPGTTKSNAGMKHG
Compound,HT-29 ED50 [1] [µM],IC50 [2] [µM],IC50 (NF-κB (p65)) [µM]
"21-deoxy-N(4)-methyl-21-oxo-N(4),21-secotalpinine [Compound 2]",>20,,
"C[C@@H]1[C@H](O)[C@@H](C)/C=C/C=C/C=C/C=C/C=C/C=C/C=C/[C@H](O[C@@H]2O[C@H](C)[C@@H](O)[C@H](N)[C@@H]2O)C[C@@H]2O[C@](O)(C[C@@H](O)C[C@@H](O)[C@H](O)CC[C@@H](O)C[C@@H](O)CC(=O)O[C@H]1C)C[C@H](O)[C@H]2C(=O)O [Amphotericin B, reference compound]",,0.09,
"CC1=C(C=O)[C@@H]2C[C@H]3c4c(c5ccccc5n4C)C[C@@H]([C@@H]2CO1)N3C [Compound 3, alstonerinal]",8.6,105,> 20
"CC(=O)C1=COC[C@@H]2[C@H]1C[C@H]1c3c(c4ccccc4n3C)C[C@@H]2N1C [Compound 4, alstonerine]",>20,145,> 20
"C[C@@H]1OC[C@@H]2[C@@H](C[C@H]3c4c(c5ccccc5n4C)C[C@@H]2N3C)[C@H]1CO [Compound 5, macrocarpine B]",,> 200,> 20
"C/C=C1/CN2[C@H]3C[C@@H]1[C@@H](CO)[C@@H]2Cc1c3n(C)c2ccccc12 [Compound 6, affinisine]",>20,,
"C/C=C1\CN2CCC34CC5C6CC7c8c(c9ccccc9n8C)CC(C6COC5(C)OC35C2CC1C(C(=O)OC)N5c1ccccc14)N7C (stereo not drawn) [Compound 7, villalstonine]",8.0,,
"C/C=C1/C[N+]2(C)CC[C@@]34C[C@H]5[C@@H]6C[C@H]7c8c(c9ccccc9n8C)C[C@@H]([C@@H]6CO[C@@]5(C)O[C@@]35[C@@H]2C[C@@H]1[C@@H](C(=O)OC)N5c1ccccc14)N7C.[Cl-] (stereo partly drawn) [Compound 10, villalstonidine E]",6.5,,
"CC(=O)O[C@H]1C(=O)[C@@]2(C)[C@H]([C@H](OC(=O)c3ccccc3)[C@]3(O)C[C@H](OC(=O)[C@H](O)[C@@H](NC(=O)c4ccccc4)c4ccccc4)C(C)=C1C3(C)C)[C@]1(OC(C)=O)CO[C@@H]1C[C@@H]2O [Paclitaxel, reference compound]",0.006,,
"COc1ccc([C@@]23Oc4cc(OC)cc(OC)c4[C@]2(O)[C@H](O)[C@H](C(=O)N(C)C)[C@H]3c2ccccc2)cc1 [Rocaglamide, reference compound]",0.005,,
N(4)-methyltalpinine [Compound 1],>20,,
villalstonidine D [Compound 9],>20,,
villalstonine N(4)-oxide [Compound 8],>20,,
